Experiment: solvent given as SMILES

O=C(C(=O)c1ccccc1)c1ccccc1
Conditions | solvation free energy, 298 K [kcal/mol]
in C1CCOC1 | -12.6
in C1COCCO1 | -12.5
in CC(=O)N(C)C | -12.6
in CC(C)(C)O | -10.8
in CC(C)=O | -12.5
in CC(C)CC(C)(C)C | -10.2
in CC(C)CC(C)O | -10.8
in CC(C)CCO | -10.8
in CC(C)CO | -10.8
in CC(C)O | -10.8
in CC(C)OC(C)C | -11.2
in CC(C)OCCO | -11.8
in CCC(C)(C)O | -11.1
in CCC(C)=O | -12.5
in CCC(C)O | -10.9
in CCCC(C)O | -10.9
in CCCCC(CC)CO | -10.8
in CCCCCC | -10.3
in CCCCCCC | -10.3
in CCCCCCCC | -10.3
in CCCCCCCCC=CCCCCCCCC(=O)OCC(COC(=O)CCCCCCCC=CCCCCCCCC)OC(=O)CCCCCCCC=CCCCCCCCC | -11.2
in CCCCCCCCCC | -10.3
in CCCCCCCCCCO | -10.9
in CCCCCCCCO | -10.8
in CCCCCCCO | -10.9
in CCCCCCO | -10.9
in CCCCCO | -11
in CCCCCl | -12.1
in CCCCO | -11
in CCCCOC(C)=O | -12.2
in CCCCOCCO | -11.8
in CCCO | -11.1
in CCCOCCO | -11.8
in CCO | -11.1
in CCOC(C)=O | -12.3
in CCOCC | -11.8
in CCOCCO | -11.9
in CO | -11.2
in COC(C)(C)C | -11.8
in COC(C)=O | -12.4
in COC(C)CCO | -11.8
in ClC(Cl)(Cl)Cl | -12
in ClCCCl | -12.7
in Clc1ccccc1 | -12.4
in Fc1ccccc1 | -12.4
in O | -6.64
in O=C1CCCCC1 | -12.6

CC(=O)CC(=O)C(C)(C)C
Conditions | solvation free energy, 298 K [kcal/mol]
in O | -5.12

CCCCN(CC)c1c([N+](=O)[O-])cc(C(F)(F)F)cc1[N+](=O)[O-]
Conditions | solvation free energy, 298 K [kcal/mol]
in O | -3.51

O=[N+]([O-])c1cc(Cl)ccc1Cl
Conditions | solvation free energy, 298 K [kcal/mol]
in C1CCCCC1 | -8.11
in CC1CCCCC1 | -8.06
in CC#N | -9.34
in CC(C)CC(C)(C)C | -7.63
in CC(C)CCO | -8.13
in CC(C)CO | -8.01
in CC(C)O | -8.07
in CCC(C)O | -7.92
in CCCCCC | -7.77
in CCCCCCC | -7.77
in CCCCCCCC | -7.75
in CCCCCCCCCC | -7.74
in CCCCCCCCCCCC | -7.71
in CCCCCCCCCO | -8.13
in CCCCCCCCO | -8.18
in CCCCCCCO | -8.19
in CCCCCCO | -8.22
in CCCCCO | -8.23
in CCCCO | -8.23
in CCCO | -8.23
in CCO | -8.32
in COC(C)=O | -9.35
in Cc1cccc(C)c1 | -9.25
in Cc1ccccc1 | -9.28

COC(=O)CCl
Conditions | solvation free energy, 298 K [kcal/mol]
in O | -4

CC(=O)Cc1ccccc1
Conditions | solvation free energy, 298 K [kcal/mol]
in O | -5.62

COc1ccc(C(=O)N(O)c2cccc(Cl)c2)cc1
Conditions | solvation free energy, 298 K [kcal/mol]
in O | -12.8

O=C(O)CCCCCC(=O)O
Conditions | solvation free energy, 298 K [kcal/mol]
in CCO | -14.2
in CCOCC | -12.8

Clc1cc(-c2cc(Cl)c(Cl)c(Cl)c2Cl)cc(Cl)c1Cl
Conditions | solvation free energy, 298 K [kcal/mol]
in O | -3.17

CC1=CCC2C3C1C2(C)CCCC3(C)C (configuration not stated)
Conditions | solvation free energy, 298 K [kcal/mol]
in O | 0.29

Cc1cc(C)c2ccccc2c1
Conditions | solvation free energy, 298 K [kcal/mol]
in O | -2.47

CC1=CCC(=C(C)C)CC1
Conditions | solvation free energy, 298 K [kcal/mol]
in O | 0.16

Cc1ccc(C)cc1
Conditions | solvation free energy, 298 K [kcal/mol]
in CC#N | -5.16
in CC(C)CC(C)(C)C | -5.39
in CC(C)CO | -4.94
in CC(O)CO | -4.14
in CCCCCCC | -5.45
in CCCCCCCCCCCCCCCC | -5.27
in CCCCCCCCO | -5.17
in CCCCOC(C)=O | -6.1
in CCO | -5.09
in CNC=O | -4.8
in COCCO | -5.06
in ClC(Cl)(Cl)Cl | -5.73
in ClCCCl | -5.96
in NC=O | -3.27
in NCCO | -3.84
in O | -0.75
in O=CN1CCOCC1 | -4.98
in OCCO | -3.4
in OCCOCCO | -4.23
in OCCOCCOCCO | -4.37

Cc1cccc(C)c1O
Conditions | solvation free energy, 298 K [kcal/mol]
in CC(C)CC(C)(C)C | -6.55
in O | -5.26

COc1cc(C(C)=O)ccc1O
Conditions | solvation free energy, 298 K [kcal/mol]
in CCC(C)=O | -12.2
in CCCO | -11.8
in Cc1ccccc1 | -10.8
in ClC=CCl | -12

CCCCOC(=O)c1ccccc1O
Conditions | solvation free energy, 298 K [kcal/mol]
in O | -3.51

CCCCCI
Conditions | solvation free energy, 298 K [kcal/mol]
in O | -0.14

CCCN(CCC)c1c([N+](=O)[O-])cc(S(C)(=O)=O)cc1[N+](=O)[O-]
Conditions | solvation free energy, 298 K [kcal/mol]
in O | -7.98

CC(C)CCCCCOC(=O)c1ccccc1C(=O)OCCCCCC(C)C
Conditions | solvation free energy, 298 K [kcal/mol]
in O | -6.43

O=O
Conditions | solvation free energy, 298 K [kcal/mol]
in Brc1ccccc1 | 1.16
in C1CCCCC1 | 0.75
in C1CCOC1 | 0.82
in C1COCCO1 | 1.1
in CC(C)(C)O | 0.78
in CC(C)=O | 0.76
in CC(C)CC(C)(C)C | 0.51
in CC(C)CO | 0.89
in CC(C)O | 0.89
in CCC(C)=O | 0.76
in CCC(C)O | 0.91
in CCCC(C)=O | 0.81
in CCCCC(C)=O | 0.86
in CCCCCC | 0.59
in CCCCCCC | 0.64
in CCCCCCCC | 0.7
in CCCCCCCCC | 0.73
in CCCCCCCCCC | 0.77
in CCCCCCCCCCC | 0.79
in CCCCCCCCCCCC | 0.83
in CCCCCCCCCCCCC | 0.87
in CCCCCCCCCCCCCC | 0.89
in CCCCCCCCCCCCCCC | 0.92
in CCCCCCCCCCCCCCCC | 0.94
in CCCCCCCCCCCO | 1.1
in CCCCCCCCCCO | 1.09
in CCCCCCCCCO | 1.06
in CCCCCCCCO | 1.04
in CCCCCCCO | 1.02
in CCCCCCO | 0.98
in CCCCCO | 0.95
in CCCCO | 0.93
in CCCCOCCCC | 0.78
in CCCO | 0.9
in CCCOCCC | 0.65
in CCO | 0.85
in CCOC(C)=O | 0.9
in CCOCC | 0.48
in CNC=O | 1.12
in CO | 0.82
in COC(C)=O | 0.77
in Cc1ccc(C)cc1 | 0.83
in Cc1cccc(C)c1 | 0.85
in Cc1ccccc1C | 0.88
in ClC(Cl)(Cl)Cl | 0.71
in ClC(Cl)Cl | 0.97
in ClCCCl | 1.09
in ClCCl | 0.9
in Clc1ccccc1 | 1
in Fc1ccccc1 | 0.56
in Ic1ccccc1 | 1.3
in O | 2.06
in O=C1CCCC1 | 1.1
in O=C1CCCCC1 | 1.13

CC(N)C(=O)C1OS(=O)OCC2C1C1(Cl)C(Cl)=C(Cl)C2(Cl)C1(Cl)Cl (configuration not stated)
Conditions | solvation free energy, 298 K [kcal/mol]
in CCCCCCCCO | -11.5

CCCS
Conditions | solvation free energy, 298 K [kcal/mol]
in CC(C)CC(C)(C)C | -3.78
in O | -0.99

COc1cc(C(C)=O)cc(-c2cc(C(C)=O)cc(OC)c2O)c1O
Conditions | solvation free energy, 298 K [kcal/mol]
in CCC(C)=O | -21.7
in CCCO | -21.1
in Cc1ccccc1 | -20.8
in ClC=CCl | -22
in O | -19.2

Cc1cc(C)cc(O)c1
Conditions | solvation free energy, 298 K [kcal/mol]
in CC(C)CC(C)(C)C | -6.48
in CCCCCC | -6.77
in CCCCCCC | -6.71
in CCCCCCCC | -6.69
in O | -6.28

Cc1nnc(NS(=O)(=O)c2ccc(N)cc2)s1
Conditions | solvation free energy, 298 K [kcal/mol]
in O | -19.3

C=C(C)C1CCC2(C)CCCC(=C)C2C1 (configuration not stated)
Conditions | solvation free energy, 298 K [kcal/mol]
in O | -0.05

CCN(CC)c1c([N+](=O)[O-])cc(C(F)(F)F)c(N)c1[N+](=O)[O-]
Conditions | solvation free energy, 298 K [kcal/mol]
in O | -5.66

CCCCOCCOC(=O)c1ccccc1C(=O)OCCOCCCC
Conditions | solvation free energy, 298 K [kcal/mol]
in O | -12.8

Cc1ccc(N)cc1
Conditions | solvation free energy, 298 K [kcal/mol]
in CC(C)CC(C)(C)C | -6.29
in CCCCCC | -6.06
in CCCCCCC | -6.14
in CCCCCCCC | -6.29
in Cc1cccc(C)c1 | -7.26
in Cc1ccccc1C | -7.27

COc1cc(C=O)ccc1O
Conditions | solvation free energy, 298 K [kcal/mol]
in O | -8.76

O=C(O)c1ccccc1[N+](=O)[O-]
Conditions | solvation free energy, 298 K [kcal/mol]
in CCCCCCCCO | -12.5

O=[N+]([O-])c1cccc(O)c1
Conditions | solvation free energy, 298 K [kcal/mol]
in CCCCCC | -7.79
in CCCCCCC | -7.72
in CCCCCCCC | -7.83
in CCCCCCCCCC | -7.74
in O | -9.63

CC(C)CCCCCCOC(=O)c1ccccc1C(=O)OCCCCCCC(C)C
Conditions | solvation free energy, 298 K [kcal/mol]
in O | -6.14

CC(C)CCOC=O
Conditions | solvation free energy, 298 K [kcal/mol]
in O | -2.13

CCCC#N
Conditions | solvation free energy, 298 K [kcal/mol]
in C=CCCCCCCCCCCCCCC | -3.53
in CC(C)(C)O | -4.67
in CC(C)CO | -4.56
in CC(C)O | -4.6
in CCC(C)O | -4.57
in CCCCCC | -3.75
in CCCCCCC | -3.68
in CCCCCCCCCCCCCCCC | -3.32
in CCCCCCCCCCO | -3.92
in CCCCCCCCCO | -4.07
in CCCCCCCCO | -4.24
in CCCCCCCO | -4.32
in CCCCCCO | -4.32
in CCCCCO | -4.47
in CCCCO | -4.62
in CO | -5.21
in O | -3.63
in [2H]O[2H] | -3.58

c1ccsc1
Conditions | solvation free energy, 298 K [kcal/mol]
in CC(C)O | -3.75
in CCCCCCC | -4.09
in CCCO | -3.71
in CN1CCCC1=O | -4.68
in O | -1.39
in O=CN1CCOCC1 | -4.39
in c1ccccc1 | -4.65

CCCCCCCO
Conditions | solvation free energy, 298 K [kcal/mol]
in CC(C)CC(C)(C)C | -5.82
in CCCCCC | -5.59
in CCCCCCC | -5.59
in CCCCCCCCCCCCCCCC | -5.43
in CCCCCCO | -8.08
in CO | -7.6
in NC=O | -6.38
in O | -4.24

CC1=CCC23CC1C(C)(C)C2CCC3C (configuration not stated)
Conditions | solvation free energy, 298 K [kcal/mol]
in O | 0.78
